In US8895555B2, “Methods of treating intestinal diseases and inflammatory conditions related to HIV-AIDS” (Bach Pharma, Inc., priority 2009, dated 2014):
Read-outs that look alike come from different tables or passages of the source.

Experiments:
[1] = system: ts1 virus, a mutant of MoMuLV; conditions: mouse, in vivo
From the text: GVT® (sodium a-luminol) was provided by Bach-Pharma, Inc., North Andover, Mass. Goat anti-MoMuLV gp70 was from Microbiology Associates, Burlingame, Calif. (this antibody recognizes epitopes shared by the mature gp70 viral envelope protein and the precursor preprotein gPr80^env). Anti-mouse Ki67 was from Vector Laboratories, Burlingame, Calif. Polyclonal and monoclonal anti-mouse TSHI3 were from Cell Signaling (Boston, Mass.) and Dr. John R. Klein's laboratory, respectively. Mand rabbit anti-activated caspase-3 was from Cell Signaling. Mouse monoclonal anti Nrf2 was from R&D systems (Minneapolis, Minn.). FITC and Texas Red-conjugated anti-mouse, rat, rabbit and goat antibodies were from Jackson ImmunoResearch (West Grove, Pa.).
FVB/N mice were obtained from Taconic Farms (Germantown, N.Y.). Breeding FVB/N pairs were housed in sterilized microisolator cages and supplied with autoclaved feed and water ad libitum. The microisolators were kept in an environmentally controlled isolation room. For ts1 infection, four-day-old mice were inoculated intraperitoneally with 0.1 ml of vehicle (mock infection) or with 0.1 ml of a ts1 suspension containing 2×107 infectious units/ml.
For GVT treatment, animals from the control and ts1-infected groups are divided into two groups each […]. The infected mice are then divided again into two groups, one of whose individuals received 0.9% normal saline, intraperitoneally, five continuous days a week, followed by two resting days, until the end of the experiment. At the same time, mice from the other half of the infected animals received freshly prepared GVT, delivered intraperitoneally at 200 mg/kg body weight/day in 0.9% normal saline. The uninfected mice were also divided into two groups, one receiving saline alone, and the other receiving GVT as described above.
At 30 dpi, mice from all groups were sacrificed, and their small intestines (2 cm from the jejunum) processed for Western blotting of the tissues or for frozen section immunohistochemistry. All mice were observed daily for clinical signs of disease, and individuals from all groups were sacrificed at 30 dpi. Intestinal tissues to be used for Western blotting are removed, snap-frozen in liquid nitrogen and stored at −80° C. until use. For immunohistochemistry, intestine segments were snap-frozen in liquid nitrogen in OCT embedding compound. These animal protocols were approved by The University of Texas M.D. Anderson Cancer Center Institutional Animal Care and Use Committee.
Western blotting analysis was performed as described previously. Briefly, whole cell protein was extracted from whole intestines in radioimmunoprecipitation assay buffer (NP40, 0.5% sodium deoxycholate, 0.1% sodium dodecyl sulfate, 0.25 mM phenylmethylsulfonylfluoride, 1 mg/ml aprotinin, leupeptin, and pepstatin A, 1 mM sodium orthovanadate, and 1 mM sodium fluoride in phosphate-buffered saline, or PBS). Protein concentrations were measured using the Bio-Rad Dc protein assay reagent (Bio Rad Laboratories, Hercules, Calif.) as per the manufacturer's instructions. These lysates ([…] total protein per sample) were electrophoresed on 10% SDS-PAGE gels, and then transferred to polyvinylidene difluoride membranes (Millipore Corp, Bedford, Mass.). The membranes were blocked at room temperature for 1 hr in iris-buffered saline, or TBS, with 5% nonfat milk, and incubated with unconjugated primary antibody for 2 hrs, followed by 3 washes with TBS. The blots were then incubated with species-appropriate horseradish peroxidase-conjugated secondary antibody for an additional 1 hr. After three washes, immune complexes were detected by chemiluminescence (NEN Life Science Products, Boston, Mass.). A monoclonal anti-13-actin antibody (Sigma, St. Louis, Mo.) was used as a loading control. Values calculated as the ratio of their normalized values against this number.

ts1 virus = conditions: for disease course: T cell loss, thymic atrophy, wasting, death: ts1-infected mice treated with GVT
From the text: GVT® (monosodium luminol) was provided by Bach-Pharma, Inc., North Andover, Mass. Goat anti-MoMuLV gp70 was from Microbiology Associates, Burlingame, Calif. This antibody recognizes epitopes shared by the mature gp70 viral envelope protein and the precursor preprotein gPr80^env Monoclonal rabbit anti-cleaved caspase-3 was from Cell Signaling (Boston, Mass.). Mouse monoclonal anti-Nrf2 was from R&D systems (Minneapolis, Minn.). Polyclonal anticytokeratin-5 (CK5) and monoclonal anti-cytokeratin-8 (CK8) antibodies were from Covance Research (Richmond, Calif.) and the National Institutes of Health Developmental Studies Hybridoma Bank (Iowa City, Iowa), respectively. F1TC and Texas Red conjugated anti-mouse, rat, rabbit and goat antibodies were from Jackson ImmunoResearch (West Grove, Pa.).
5 (and 6)-chloromethyl-2′,7′-dichlorodihydrofluorescein diacetate (CM-H2DCFDA; Molecular Probes, Eugene, Oreg.; hereafter called DCFDA), is a cell-permeant indicator for intracellular ROS, including hydrogen peroxide and superoxide. The dye itself is non-fluorescent, but when its acetate groups are removed by intracellular esterases, it is oxidized to form a highly fluorescent derivative, carboxydichlorofluorescein. Freshly isolated thymocytes were prepared from uninfected, GVT-only, ts1-only and ts1-GVT-treated mice, at 30 dpi. The thymocytes were incubated with […] of DCFDA, in culture medium (RPMI 1640) at 37° C. for 30 mm. After this loading period, the cells were washed twice with PBS, lysed, and the fluorescence of their contents measured using a Synergy HT multi-detection microplate reader (BioTek Instruments, Inc., Winoski, Vt.). The data are expressed as means±standard deviation (SD) of relative fluorescence units (against a standard curve) for DCFDA-loaded thymocyte lysates for three mice of each treatment group (See FIG. 16).
FVB/N mice were obtained from Taconic Farms (Germantown, N.Y.). Breeding FVB/N pairs were housed in sterilized microisolator cages and supplied with autoclaved feed and water ad libitum. The microisolators were kept in an environmentally controlled isolation room. For ts1 infection, 4-day-old mice were inoculated intraperitoneally with 0.1 ml of vehicle (mock infection) or with 0.1 ml of a ts1 suspension containing 2×107 infectious units/ml. […] For GVT treatment, animals from the control and ts1 infected groups were divided into two groups each on the day of infection. Infected mice were then divided again into two groups, one of whose individuals received 0.9% normal saline, intraperitoneally, for five continuous days-a-week, followed by two resting days, until the end of the experiment, while the other half of the infected animals received freshly prepared GVT, delivered intraperitoneally at 200 mg/kg body weight/day in 0.9% normal saline. The uninfected mice were also divided into two groups, one receiving saline alone, and the other receiving GVT as described above. […] All mice were observed daily for clinical signs of disease, and the mice from all groups were sacrificed at 30 dpi.
Whole thymi that were to be used for Western blotting were removed, snap frozen in liquid nitrogen and stored at −80° C. until use. For immunohistochemistry, thymi were snap-frozen in liquid nitrogen in Optimal Cutting Temperature (OCT) embedding compound (Sakura Finetek USA, Torrance, Calif.). These experimental protocols were approved by The University of Texas M.D. Anderson Cancer Center's Institutional Animal Care and Use Committee. […]

[2] = system: acute intestine infections of different nature
Method: Clinical tests were performed on 56 patients suffering from acute intestine infections of different nature, accompanied by intoxication syndrome and diarrhea. All 56 patients had similar clinical manifestations, form and seriousness of the disease. The drug was prescribed to be used according to the following protocol: initial dose, 200 mg intramuscularly; then 3 hours later, a dose of 100 mg; and 3 hours later, a dose of 100 mg (400 mg per day).
In anamnesis of all patients no data of non-endurance or allergic reactions to any remedies was stated. GVT was administered to 54 patients within first hours after admission, before the application of traditional treatment methods, i.e., water-crystalloid solutions, vitamins, spasmolytics, as by acute dysentery and salmonellosis—antibacterial therapy.

[3] = system: MT-4 cells (HIV-infected or uninfected)
Method: HIV-1 infection of cultured T lymphoblastoid cells (MT4) causes a dramatic increase in intracellular ROS, and this is associated with cell death.
GVT was added to the cell culture every day for all six days of culture. HIV causes apoptosis of MT-4 cells, measurable when the cells are harvested at 6 dpi.

[4] = system: H9 cells (HIV-infected or uninfected)
[5] = GVT intramuscularly, 400 mg per day

Nc1cccc2c(=O)[n-][nH]c(=O)c12.[Na+] [GVT, monosodium luminol]
CD4-positive cells in the LP of intestinal villi [1]: present in the LP of villi | Ki67 staining pattern (cell cycling) of intestinal epithelium [1]: limited to the crypts | Nrf2 in intestinal epithelial cells (immunostaining) [1]: heavy loading with Nrf2 | Nrf2 levels in intestinal tissues (Western blot) [1]: significantly upregulated | TSH expression pattern along crypt-villus axis (immunostaining) [1]: limited to the crypts | TSH level in intestinal lysates (Western blot) [1]: what appear to be normal TSH levels | cleaved caspase-3 in intestines (Western blot) [1]: absent | gPr80env accumulation in intestinal lysate (anti-gp70 Western blot) [1]: only gp70 was present | crypt-villus organization of small intestine (H&E and gp70 staining) ([1]; ip, 200 mg/kg/day): apparently normal crypt-villus organization | Nrf2-positive cells in thymic sections (gp70/Nrf2 double staining) (ts1 virus; ts1-GVT mice, 30 dpi): large numbers of red cellular profiles (Nrf2-positive only) | thymic corticomedullary organization (H&E) (ts1 virus; ts1-GVT mice, 30 dpi): normal corticomedullary organization | thymus weight (ts1 virus; ts1-GVT mice, 30 dpi): no thymic weight loss | disease course: T cell loss, thymic atrophy, wasting, death (ts1 virus): delayed T cell loss and thymic atrophy for many weeks | disease course: T cell loss, thymic atrophy, wasting, death (ts1 virus; listed as monosodium luminol): significantly delays thymic atrophy, wasting, and death | patients with body temperature normalized on the 1st or 2nd day of treatment ([2]; 53 patients of 56): 94.6% | general weakness [2, 5]: disappeared on the 3rd day | time to positive effect [2, 5]: ≤ 24 h | intoxication ([2]; GVT intramuscularly, 400 mg per day, majority of patients): decrease in intoxication on the 1st and 2nd days | viability of uninfected MT-4 cells ([3]; GVT added every day for 6 days of culture): increases the viability of uninfected cells | apoptosis of HIV-infected MT-4 cells ([3]; GVT added every day for 6 days, harvested at 6 dpi): significantly reduces apoptosis | survival of HIV-infected MT4 cells ([3]; HIV-1 infected, GVT-treated): the infected cells survive | Nrf2 levels in MT-4 cells ([3]; days 1-6 dpi, infected or not): an increase | viability of uninfected MT-4 cells ([3]; single dose on day 1): no effect on their viability | effect on uninfected MT-4 cells (proliferation) ([3]; uninfected, FIG. 9): mitogenic | ROS in uninfected H9 cells [4]: does not dramatically reduce ROS
